In patent US20200215025A1, “TREATMENT OF EXCITOTOXICITY” (priority 2017, published 2020):
Several values for one entry are separate records, joined by “and”; a condition that tells them apart may be missing. Identical values can stand only once. Entries after “also recorded” stand apart in the source; their conditions may differ.

Key:
mice (C57BI/6J) = test: Photothrombotic cerebral cortex infarct model in mice; type: in vivo, mouse; settings: for Infarct volume, 5 DPI carrier versus 5 DPI drug (ANOVA, Holm-Sidak): Nx-2 p=0.025, Nx-1 p=0.886
Experimental: All in vivo experiments were performed with University of New South Wales (UNSW) Sydney Animal Care and Ethics Committee approval. To undertake this randomized blinded photothrombotic study, male and female mice (C57BI/6J) aged 2-4 months (20-30 g) were anaesthetised with a 4% isoflurane induction (on O2) and fixed onto a stereotaxic frame. Anaesthesia was maintained at 1.5% isoflurane for the rest of the procedure. The animals were constantly monitored for their heart rate and oxygen saturation with their body temperature maintained at 37±1° C. (Kent Scientific Physiology Suite system). An ophthalmological ointment was applied to the eyes for corneal protection. Analgesia Temgesic (Buprenorphine; 0.15 mg/kg; 0.32 mg/ml) was administered intramuscularly, using a 27G needle. The skull was shaved over the target cerebral cortex region and a local anaesthetic Lignocaine was injected subcutaneously (27 needle; 20 mg/ml). A midline incision was made through the skin to expose the cranium and the periosteum was removed. The surface of the cranium was made lucid by applying ophthalmological gel over the surface. The fibre-optic coupled green LED (532 nm; ˜1 mW; 1 mm diameter light guide, Thorlabs, USA) was placed over the left hemisphere of cerebral cortex (3 mm rostral to lambda; 2 mm from the midline) followed by injection of photosensitising dye Rose Bengal (50 mg/kg) with a 29G needle via the tail vein. The skull was illuminated for 5 minutes to trigger the localized thrombus formation at the target region of cerebral cortex. The skin was then sutured and the isoflurane anaesthesia was discontinued, while providing 100% oxygen until the mice regained consciousness. Mice were injected with saline (intraperitoneal, 250 μl) during the recovery phase for rehydration. The mouse was maintained on the rectal probe feedback controlled heating pad in a recovery cage until ambulatory (˜20 min) and then the animal was placed back in its cage with food and water. The mice were monitored for signs of post-operative stress on a daily basis for the five day treatment period. Mice were administered with either the carrier or Nx-2 drug (100 mg/kg) via a rectal suppository, 45 minutes after the photothrombotic lesion, and then every 24 hours for a further 4 days in the conscious mouse. At 5 days post-infarct, the mice were euthanized via an intraperitoneal injection of Lethabarb (100 mg/kg; 27 G needle), following which the mice were transcardially perfused with 4% paraformaldehyde (PFA) in phosphate buffer (0.1 M, pH 7.4). The brains were dissected out and post-fixed for overnight in 4% PFA at 4° C. The brains were cryoprotected in 10% and 30% sucrose made in 0.01 M PBS solutions overnight respectively. Images of the surface infarct were captured on a dissecting microscope. Following cryoprotection, the brains were sectioned coronally (50 μm thick) and kept in 0.01 M PBS until they were imaged under the darkfield microscope. The Image J (NIH) software was used to measure the surface area of the infarct and darkfield sections enabled measurement of the cross sectional area of the infarct (Image J, NIH). Total infarct volume was quantified by summation of areas of infarct from darkfield sections integrated with thickness of the tissue. Descriptive statistics, ANOVA and t-tests were performed to detect the significance difference among the treatment groups using Sigmaplot (Systat software, version 12.0) after establishing normal distribution of the data (alpha=0.05).
The skull of the mouse (C57BI/6J strain) was exposed to enable fibre optic illumination of a region of the cerebral cortex with green light (532 nm) to trigger localized thrombus formation due to tail vein injection of the photo sensitizing dye Rose Bengal. Macroscopic representation of the photo-thrombotic infarct was assessed 5 days post injury in mice treated with carrier only or with Nx-1 drug. […]

rHEK293-GCaMP5g cells [1] = test: Carbachol-induced Ca2+ store release in rHEK293-GCaMP5g cells (FlexStation 3); type: cell-based, human; settings: for EC50: carbachol 100 μM in Ca2+ free solution, areas under the curve (RFU) normalised to DMSO control, read-out: EC50, inhibition of Ca2+ store release; for Block of carbachol-induced Ca2+ store release: compound 4 μM, carbachol 100 μM, Ca2+ free solution
Source text: (§1) Untransfected human embryonic kidney 293 (HEK293) cells are a model for neuronal cell Ca^2+ signalling via Gq type G protein-coupled receptors (such as the metabotropic glutamate receptors). […] The current study utilised a custom-developed recombinant human embryonic kidney 293 (rHEK293) cell line stably over-expressing a genetically encoded Ca^2+ reporter (GCaMP5g—after [Akerboom J et al., 2012 Journal of Neuroscience, 32(40): 13819-13840]). This enabled imaging of the Ca^2+ store release under conditions where Carbachol (muscarinic receptor agonist)—induced Ca^2+ store release via the endogenous M3 muscarinic receptor—was delivered in a solution (in mM: NaCl 145; KCl 5.8; MgCl2 0.9; HEPES 10, NaH2PO4 0.7, d-glucose 5.6; pH 7.2-7.4, osmolarity 310-330 mOsm/L), lacking Ca^2+, to the wells containing the adherent rHEK293-GCaMP5g cells, using a FlexStation 3 multi-modal microplate reader (Molecular Devices). This paradigm, with sustained Carbachol presentation, results in extrusion of the cytosolic Ca^2+ from the cell via plasma membrane Ca^2+ pumps, alongside Ca^2+ store depletion. When Ca^2+ is then added to the media, a Ca^2+ signal is detected that reflects Ca^2+ entry into the cells via Ca^2+ entry pathways [Elliott, 2001 Cell calcium, 30, 73-93].
(§2) This study investigated the effect of Nx-1 and Nx-2 on the Ca^2+ re-entry in the rHEK293-GCaMP5g cells using the FlexStation 3 plate reader in ‘Flex Read’ configuration (485 nm excitation, 510 nm emission, 6 flashes per sample, medium detector sensitivity, 37° C., 780 sample points at 1.54 s intervals). The cells were seeded into the 96 well plates in DMEM media with 10% foetal calf serum supplement. The cells approached confluence at ˜66 hours at which stage the cells were washed with the Ca^2+-free solution, and then the drug was added in Ca^2+ free solution (80 μl) and the plate was then placed into the FlexStation plate reader (37° C.) and rested for 30 minutes prior to imaging. The Carbachol (final concentration 100 μM in Ca^2+ free solution; drug at specified concentration) was added 180 seconds after the start of the Ca^2+ imaging read. The Ca^2+ entry was triggered at 480 seconds by adding 10 μl of Carbachol in Ca^2+ solution with the drug (final concentrations: 100 uM Carbachol, Ca^2+1.3 mM; drug at specified concentration). The Ca^2+ imaging proceeded for a total duration of 20 minutes. Controls utilized DMSO carrier at corresponding dilution used with the drug at specified concentrations. Data analysis was based on the areas under the curves (RFU—relative fluorescence Units), with statistical analysis using Sigmaplot (Systat software, version 12.0) and graphics produced using Graphpad Prism (Graphpad Software, version 7.02).

rHEK293-GCaMP5g cells [2] = test: Ca2+ re-entry in rHEK293-GCaMP5g cells after Ca2+ store depletion (FlexStation 3); type: cell-based, human; settings: carbachol 100 μM; for EC50: Ca2+ 1.3 mM restored, areas under the curve (RFU) normalised to DMSO control, read-out: EC50, inhibition of Ca2+ re-entry; for Block of Ca2+ re-entry: compound 4 μM, 1.3 mM Ca2+ restored
Source text: as §1, §2

Row | Compound | Infarct volume, 5 DPI carrier versus 5 DPI drug (ANOVA, Holm-Sidak) (mice (C57BI/6J); 100 mg/kg) | Surface infarct area, 5 DPI drug versus core infarct (2 HPI control) (mice (C57BI/6J); 100 mg/kg, p=0.064) | Neuroprotection, share of the penumbra expansion (surface infarct area) (mice (C57BI/6J); 5 DPI, 100 mg/kg, relative to 2 HPI core infarct and 5 DPI carrier) | infarct surface area (mice (C57BI/6J); 5 days post infarct, 100 mg/kg rectal suppository 45 min after lesion then every 24 h for 4 days, individual mice) | infarct volume (mice (C57BI/6J); Table 3, 5 days post infarct, Nx-2 100 mg/kg rectal suppository, individual mice) | EC50 (rHEK293-GCaMP5g cells [1]) | Block of carbachol-induced Ca2+ store release (rHEK293-GCaMP5g cells [1]) | EC50 (rHEK293-GCaMP5g cells [2]) | Block of Ca2+ re-entry (rHEK293-GCaMP5g cells [2]) | infarct volume (mice (C57BI/6J); Table 5, 5 days post infarct, Nx-1 100 mg/kg, individual mice) | infarct volume (mice (C57BI/6J); Table 7, 5 days post infarct, Nx-1 100 mg/kg, individual mice) | EC50 (rHEK293-GCaMP5g cells [1]; Homo sapiens) | EC50 (rHEK293-GCaMP5g cells [2]; Homo sapiens)
1 | COc1ccc(C2c3ccc(O)cc3OCC2c2ccc(O)cc2)cc1 (racemic) [Nx-2] | significant difference | not significantly different | 50% | 6.56 mm^2 (2×) and 8.99 mm^2 and 8.19 mm^2 and 5.79 mm^2 and 6.70 mm^2 | 13.29 mm^3 and 10.34 mm^3 and 14.65 mm^3 and 12.02 mm^3 and 10.51 mm^3 and 13.76 mm^3 | ~0.6 µM and ~0.7 µM | Block; also recorded: virtually blocked | ~0.6 µM and ~0.7 µM | Block |  |  |  | 
2 | Oc1ccc(C2=Cc3ccc(O)cc3OC2)cc1 [Nx-1] | not significantly different |  |  |  |  | ~2 µM | block; also recorded: virtually blocked | ~2 µM | blocked | 11.80 mm^3 and 18.94 mm^3 and 14.16 mm^3 and 16.84 mm^3 | 11.80 mm^3 and 18.94 mm^3 and 14.16 mm^3 and 16.84 mm^3 | ~1.5 µM | ~1.5 µM
